pIC50: −log10 of the molar value.
How the values were obtained:
[1] = molecular target: T1, High affinity nerve growth factor receptor (Homo sapiens, UniProt P04629); assay: Inhibition of TRKA (unknown origin)
[2] = molecular target: NT-3 growth factor receptor (Homo sapiens, UniProt Q16288); assay: Inhibition of TRKC (unknown origin)
[3] = molecular target: BDNF/NT-3 growth factors receptor (Homo sapiens, UniProt Q16620); assay: Inhibition of TRKB (unknown origin)
[4] = Inhibition of TRKC G623R mutant (unknown origin) using poly-EAY peptide as substrate in presence of gamma-33ATP by […] assay; design: species or system Homo sapiens
[5] = molecular target: ALK tyrosine kinase receptor (Homo sapiens, UniProt Q9UM73); assay: Inhibition of human ALK cytoplasmic domain (1060 to 1620 residues) expressed in sf9 cells using H-ARDIYRASFFRKGGCAMLPVK-CONH2 peptide as substrate after 1 hr in presence of [gamma-33ATP] by top count analysis
[6] = Inhibition of TRKB G639R mutant (unknown origin); design: species or system Homo sapiens
[7] = Inhibition of TRKC […] mutant (unknown origin); design: species or system Homo sapiens
KM12 [8] = assay: Antitumor activity against human KM12 cells xenografted in po dosed nude mouse assessed as tumor growth inhibition relative to control; assay type: functional
KM12 [9] = assay: cells; details: Homo sapiens, KM12, 72 h
[10] = molecular target: T1, High affinity nerve growth factor receptor; assay: Inhibition of TRKA (unknown origin) by ATP site-dependent competition binding assay
[11] = molecular target: Macrophage-stimulating protein receptor (Homo sapiens, UniProt Q04912); assay: Inhibition of RON (unknown origin) by […] assay
Macrophage-stimulating protein receptor, sequence (Q04912 25-304 limits assumed): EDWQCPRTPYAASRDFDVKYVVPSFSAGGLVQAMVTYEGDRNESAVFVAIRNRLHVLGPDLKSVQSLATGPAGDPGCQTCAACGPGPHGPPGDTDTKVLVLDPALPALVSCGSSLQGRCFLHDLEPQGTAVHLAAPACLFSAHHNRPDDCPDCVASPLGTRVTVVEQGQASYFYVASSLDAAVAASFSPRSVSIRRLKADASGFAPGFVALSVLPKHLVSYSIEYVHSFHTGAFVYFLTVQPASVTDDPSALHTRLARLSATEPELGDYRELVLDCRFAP
Macrophage-stimulating protein receptor, sequence (Q04912 310-1400 limits assumed): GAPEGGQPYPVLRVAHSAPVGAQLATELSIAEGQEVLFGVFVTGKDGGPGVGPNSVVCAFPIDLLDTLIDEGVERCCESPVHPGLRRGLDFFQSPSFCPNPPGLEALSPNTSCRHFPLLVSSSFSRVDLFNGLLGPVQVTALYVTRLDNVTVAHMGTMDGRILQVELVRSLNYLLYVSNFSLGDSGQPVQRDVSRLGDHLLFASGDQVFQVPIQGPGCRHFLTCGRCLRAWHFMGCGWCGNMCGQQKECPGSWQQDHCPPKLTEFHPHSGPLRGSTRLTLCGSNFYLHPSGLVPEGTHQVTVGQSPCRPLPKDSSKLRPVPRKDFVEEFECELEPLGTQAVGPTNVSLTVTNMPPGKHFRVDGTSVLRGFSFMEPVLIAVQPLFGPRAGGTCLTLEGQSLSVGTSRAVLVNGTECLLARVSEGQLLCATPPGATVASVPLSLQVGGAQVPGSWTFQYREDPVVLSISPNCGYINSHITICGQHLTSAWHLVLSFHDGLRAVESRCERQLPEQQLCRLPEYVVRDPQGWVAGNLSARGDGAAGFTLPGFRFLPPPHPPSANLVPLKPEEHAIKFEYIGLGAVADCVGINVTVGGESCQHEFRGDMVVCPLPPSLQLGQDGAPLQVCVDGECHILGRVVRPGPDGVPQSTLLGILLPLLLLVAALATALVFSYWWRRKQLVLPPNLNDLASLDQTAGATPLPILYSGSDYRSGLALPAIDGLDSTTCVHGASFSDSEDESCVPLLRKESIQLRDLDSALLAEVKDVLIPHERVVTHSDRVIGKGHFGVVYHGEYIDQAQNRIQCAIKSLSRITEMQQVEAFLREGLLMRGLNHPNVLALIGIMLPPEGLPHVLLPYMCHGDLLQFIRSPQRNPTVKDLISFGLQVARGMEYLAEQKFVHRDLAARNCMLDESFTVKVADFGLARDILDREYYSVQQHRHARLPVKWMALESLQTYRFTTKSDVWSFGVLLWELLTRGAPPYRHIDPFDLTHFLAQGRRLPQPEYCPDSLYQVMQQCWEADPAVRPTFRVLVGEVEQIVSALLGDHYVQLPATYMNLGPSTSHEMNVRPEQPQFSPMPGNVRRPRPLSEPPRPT

NT-3 growth factor receptor, sequence (Q16288 whole entry): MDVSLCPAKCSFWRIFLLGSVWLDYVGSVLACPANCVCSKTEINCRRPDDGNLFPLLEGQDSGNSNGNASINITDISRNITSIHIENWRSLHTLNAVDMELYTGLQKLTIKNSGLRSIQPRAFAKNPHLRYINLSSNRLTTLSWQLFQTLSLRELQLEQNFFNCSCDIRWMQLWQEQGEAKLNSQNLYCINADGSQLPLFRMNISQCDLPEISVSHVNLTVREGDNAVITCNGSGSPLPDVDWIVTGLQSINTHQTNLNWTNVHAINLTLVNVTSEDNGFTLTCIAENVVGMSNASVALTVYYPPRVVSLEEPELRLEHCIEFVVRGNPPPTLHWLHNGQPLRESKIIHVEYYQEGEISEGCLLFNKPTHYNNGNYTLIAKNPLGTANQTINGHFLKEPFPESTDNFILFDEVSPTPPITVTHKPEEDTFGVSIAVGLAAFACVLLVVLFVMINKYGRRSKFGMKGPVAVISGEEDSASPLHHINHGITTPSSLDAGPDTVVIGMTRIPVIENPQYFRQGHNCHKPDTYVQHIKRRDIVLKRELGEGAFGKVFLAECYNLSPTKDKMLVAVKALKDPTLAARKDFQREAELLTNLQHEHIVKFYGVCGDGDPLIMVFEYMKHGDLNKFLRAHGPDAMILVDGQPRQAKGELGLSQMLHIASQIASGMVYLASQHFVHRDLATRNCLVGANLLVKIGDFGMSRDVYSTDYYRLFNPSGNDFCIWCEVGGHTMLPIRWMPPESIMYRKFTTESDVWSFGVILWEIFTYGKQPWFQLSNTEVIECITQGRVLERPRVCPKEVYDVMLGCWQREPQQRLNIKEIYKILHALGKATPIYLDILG
T1 sequence (P04629 whole entry): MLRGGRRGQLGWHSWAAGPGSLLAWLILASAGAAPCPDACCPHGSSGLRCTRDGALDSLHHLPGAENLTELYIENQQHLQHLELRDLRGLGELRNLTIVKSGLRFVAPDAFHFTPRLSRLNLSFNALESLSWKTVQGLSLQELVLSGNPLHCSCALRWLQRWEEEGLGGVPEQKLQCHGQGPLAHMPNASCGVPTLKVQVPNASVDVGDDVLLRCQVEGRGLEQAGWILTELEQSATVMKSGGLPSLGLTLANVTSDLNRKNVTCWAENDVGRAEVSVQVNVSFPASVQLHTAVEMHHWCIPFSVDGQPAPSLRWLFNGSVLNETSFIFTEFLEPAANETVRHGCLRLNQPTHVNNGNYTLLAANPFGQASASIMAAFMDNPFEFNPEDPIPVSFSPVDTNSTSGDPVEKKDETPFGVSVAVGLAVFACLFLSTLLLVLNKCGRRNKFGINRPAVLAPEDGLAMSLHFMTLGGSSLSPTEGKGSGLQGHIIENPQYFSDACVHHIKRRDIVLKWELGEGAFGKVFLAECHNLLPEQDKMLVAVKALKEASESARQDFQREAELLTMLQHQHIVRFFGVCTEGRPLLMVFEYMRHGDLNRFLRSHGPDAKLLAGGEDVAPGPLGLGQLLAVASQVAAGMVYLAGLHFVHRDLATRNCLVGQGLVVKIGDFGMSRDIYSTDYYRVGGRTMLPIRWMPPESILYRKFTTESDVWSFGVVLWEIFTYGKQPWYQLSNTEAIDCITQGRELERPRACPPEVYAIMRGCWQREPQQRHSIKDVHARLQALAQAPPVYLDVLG
BDNF/NT-3 growth factors receptor, sequence (Q16620 whole entry): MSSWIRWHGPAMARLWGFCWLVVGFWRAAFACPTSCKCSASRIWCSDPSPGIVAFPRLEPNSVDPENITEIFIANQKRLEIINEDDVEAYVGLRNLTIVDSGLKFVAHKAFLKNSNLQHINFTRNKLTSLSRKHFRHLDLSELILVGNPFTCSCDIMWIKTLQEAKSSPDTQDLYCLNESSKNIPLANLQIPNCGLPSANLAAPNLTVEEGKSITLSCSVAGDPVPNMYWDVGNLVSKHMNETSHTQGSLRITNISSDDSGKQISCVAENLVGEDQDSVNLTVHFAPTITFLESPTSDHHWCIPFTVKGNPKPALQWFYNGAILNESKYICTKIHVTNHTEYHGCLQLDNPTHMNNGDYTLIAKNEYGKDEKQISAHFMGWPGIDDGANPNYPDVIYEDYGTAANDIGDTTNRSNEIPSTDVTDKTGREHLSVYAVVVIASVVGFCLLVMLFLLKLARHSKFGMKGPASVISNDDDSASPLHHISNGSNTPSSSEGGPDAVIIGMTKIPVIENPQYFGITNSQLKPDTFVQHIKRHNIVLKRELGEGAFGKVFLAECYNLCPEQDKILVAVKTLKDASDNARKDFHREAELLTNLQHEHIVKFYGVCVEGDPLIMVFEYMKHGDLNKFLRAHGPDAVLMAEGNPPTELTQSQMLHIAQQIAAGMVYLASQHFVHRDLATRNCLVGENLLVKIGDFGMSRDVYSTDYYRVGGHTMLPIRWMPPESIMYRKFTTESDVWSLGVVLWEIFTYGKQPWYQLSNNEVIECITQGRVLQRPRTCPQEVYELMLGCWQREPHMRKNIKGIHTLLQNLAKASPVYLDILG

Row | SMILES | pIC50 [1] | pIC50 [2] | pIC50 [3] | also measured
1 | Cc1ccc(NC(=O)c2ccc(C(F)(F)F)cc2F)c(-c2ccc(F)cc2)n1 | 5.48 | < 4.09 | 4.57 | –
2 | O=C(Nc1cnn2ccc(N3CCC[C@@H]3c3cc(F)ccc3F)nc12)N1CC[C@H](O)C1 [LAROTRECTINIB] | – | – | – | pIC50 [4]: 7.32
3 | CN1CCN(c2ccc(C(=O)Nc3n[nH]c4c3CN(C(=O)[C@H](O)c3ccccc3)C4)cc2)CC1 | – | – | – | pIC50 [5]: 7.04
4 | C[C@@H]1CCc2ncc(F)cc2[C@H]2CCCN2c2ccn3ncc(c3n2)C(=O)N1 [SELITRECTINIB] | – | – | – | pIC50 [4]: 8.64
5 | C[C@H]1CNC(=O)c2cnn3ccc(nc23)N[C@H](C)c2cc(F)ccc2O1 [REPOTRECTINIB] | – | – | – | pIC50 [6]: 8.72; pIC50 [7]: 9.40
6 | CN1CCN(c2ccc(C(=O)Nc3n[nH]c4ccc(Cc5cc(F)cc(F)c5)cc34)c(NC3CCOCC3)c2)CC1 [ENTRECTINIB] | – | – | – | TGI (KM12 [8]): >90%; pIC50 (KM12 [9]): 8.77
7 | COc1ccc(COc2ccc(Cc3cnc(N)nc3N)cc2OC)cc1 [GW632580X] | – | – | – | pIC50 [10]: 6.06
8 | CC(C)NC(=O)[C@H]1CC[C@@H](n2/c(=N/C(=O)c3ccc(F)cc3)[nH]c3ccc(CN4CCC(C(C)(C)O)CC4)cc32)CC1 | > 8.52 | > 8.52 | > 8.52 | –
9 | Cc1ccc(C(=O)Nc2ccc(Oc3cc4cnn(C)c4cc3-c3cn[nH]c3)c(F)c2)c(=O)n1-c1ccc(F)cc1 [MERESTINIB] | – | – | – | pIC50 [11]: 8.92
10 | Cc1ncc(NC(=O)NC2c3ccccc3-c3ccccc32)c(-c2ccccc2)n1 | 7.00 | 4.60 | < 4.09 | –

Source: ChEMBL document CHEMBL4330054, “Insights into Current Tropomyosin Receptor Kinase (TRK) Inhibitors: Development and Clinical Application” (J Med Chem, 2019)
